Experimental data: patent US12024715B2, “Compositions and methods for improved T cells” (Temple University-Of The Commonwealth System of Higher …, priority 2017, dated 2024)

What was measured:
[1] = test system: Id3, Id2, Eomes and Prdm1; assay: Real-time RT-PCR analysis of Ezh2-targeted genes in cultured Pmel-1 cells; assay type: cell-based, mouse; conditions: WT Pmel-1 cells, anti-CD3/CD28 Ab+IL-2, inhibitor treatment for 7 days
Procedure: Splenic and LN CD44loCD8+ TN cells were prepared as previously described (Zhang et al., 2002, J Immunol, 169:7111-7118; Zhang et al., 2005, Nat Med, 11:1299-1305). The purity was usually 90-95%. CD8+ T cell cultures were set up as previously described (He et al., 2013, Blood, 122:4119-4128; Tong et al., 2014, J Immunol, 192:5012-5022). In brief, CD44loCD8+ naive T cells (were cultured in the presence of anti-CD3 (2 μg/ml) and anti-CD28 (2.0 μg/ml) Abs together with recombinant human IL-2 (10 ng/ml; R&D Systems). In vivo sorted T cells and cultured T cells were restimulated with anti-CD3 Ab (1 μg/ml; BioLegend) or human gp100 (10^−6 M) for 5 hours before intracellular staining. Bone marrow-derived dendritic cells (DCs) were generated as previously described (Zhang et al., 2005, Nat Med, 11:1299-1305). For TAT-Cre experiments, 10^6 purified CD8^+ T cells or splenocytes were incubated in 100 μL serum-free RPMI containing 90 to 100 μg/mL TAT-Cre fusion protein for 16 hours at 37° C. After extensive washing, treated cells were kept in vitro culture for another 5 days.
The MigR1 retroviral vector system was described previously (Tong et al., 2014, J Immunol, 192:5012-5022; Pear et al., 1998, Blood, 92:3780-3792). Ezh2, Ezh2 mutants, and Id3 cDNA was cloned into Mig-R1 (GFP) vector. For retroviral infection, CD8+ T cells were prestimulated with anti-CD3/CD28 Ab for 24 hours, and then the retrovirus supernatant was added in the presence of 8 μg/ml polybrene (Sigma). Cells were spinoculated at 3000 rpm, 32° C. for 3 hours. The same retroviral infection procedure was repeated 24 hours later (Tong et al., 2014, J Immunol, 192:5012-5022).
RNA was isolated with an RNeasy Mini kit (Qiagen) and cDNA was generated by reverse transcription (Applied Biosystems). Real-time RT-PCR was performed with a SYBR green PCR mix (ABI Biosystems) in the Realplex Eppendorf Real-time PCR instrument (Eppendorf AG). Gene expression levels were calculated relative to the 18s gene. Data were collected and quantitatively analyzed on a Realplex sequence detection system (Eppendorf AG), and Applied Biosystems StepOne Plus Real-time PCR systems (Applied Biosystems).

pEzh2S21 and H3K27me3 = assay: Immunoblot analysis of TCR-activated Pmel-1 CD8+ T cells; assay type: cell-based, mouse; conditions: proliferating Pmel-1 CD8+ T cells stimulated in vitro for 7 days, with or without MK2206
[2] = test system: promoter regions of Id3, Id2, Eomes and Prdm1 loci; assay: ChIP analysis of Ezh2 and H3K27me3 deposition in cultured Pmel-1 cells; assay type: cell-based, mouse; conditions: Akt inhibition
Procedure: A Millipore ChIP kit and Diagenode ChIP kit was used for ChIP assay as described by the manufacturer. DNA-protein complexes were crosslinked with formaldehyde at a final concentration of 1%. Sonicated extracts were precleared and incubated with Abs specific to Ezh2, H3K27me3, or nonspecific anti-IgG. The immunoprecipitated DNA was quantified by real-time quantitative PCR.

B16 melanoma = assay: Adoptive transfer of Pmel-1 cells into B6 mice with pre-established B16 melanoma, tumor size over time; assay type: in vivo, mouse; conditions: Pmel-1 cells treated during ex vivo culture, transferred into B16 melanoma-bearing B6 mice
Procedure: Pmel-1 T cells (1×10^4 to 1×10^6) were transferred into sublethally irradiated B6 mice (5.0 Gy). IL-2 (100,000 IU) was administered intraperitoneally twice a day, and BM-derived DCs which have been pulsed with gp100 (10 μg) were transferred via tail vein, for constitutively three days after adoptive transfer. C57BL/6 mice were injected subcutaneously with 5×10^5 B16 melanoma cells. In some experiments, Ezh2^fl/fl mice were intravenously received VVA-gp100 or VVA-OVA.
The Abs used for flow cytometric analyses were purchased from eBioscience, BioLegend, or BD Biosciences. Flow cytometric analyses were performed with FACS LSRII (BD Biosciences) as described (Zhang et al., 2005, Nat Med, 11:1299-1305; Zhang et al., 2002, J Immunol, 169:7111-7118). B16 mouse melanoma cell line was from American Type Culture Collection.

In the case of `Oc1cccc(-c2nc(N3CCOCC3)c3oc4ncccc4c3n2)c1` [PI103], the Eomes expression [1] is reported as “reducing”, the Id2 expression [1] is reported as “reducing” and the Id3 expression [1] is reported as “upregulated”. The Prdm1 expression [1] was “reducing”.

`NC1(c2ccc(-c3nc4ccn5c(=O)[nH]nc5c4cc3-c3ccccc3)cc2)CCC1` [MK2206] was tested, and the “H3K27me3 (immunoblot)” value (pEzh2S21 and H3K27me3) was “increase”, the “pEzh2S21 (immunoblot)” value (pEzh2S21 and H3K27me3) was “marked decrease” and the Eomes expression [1] was “reducing”. For the same compound, the Id2 expression [1] was “reducing”, the Id3 expression [1] was “upregulated” and the Prdm1 expression [1] was “reducing”. The “amount of Ezh2 at the promoter regions of Id3, Id2, Eomes and Prdm1 loci” value [2] was “significantly increased”, the “amount of H3K27me3 at the promoter regions of Id3, Id2, Eomes and Prdm1 loci” value [2] was “significantly increased” and the “anti-tumor activity (tumor growth)” value (B16 melanoma) was “greater anti-tumor activity than untreated Pmel-1 cells, but was less potent than Ezh2S21A-transduced Pmel-1 cells”.
